Results: US20230372313A1, “METHODS FOR REDUCING GLYCOSPHINGOLIPID CONCENTRATION IN BRAIN TISSUE AND METHODS OF TREATMENT OF NEURODEGENERATIVE DISEASES INVOLVING THE SAME” (GENZYME CORPORATION, priority 2020, published 2023)

Experiments:
Type in all cases: in vivo, human
[1] = CSF concentration of Compound 2 in PD participants (LC-MS/MS); conditions: for CSF concentration, mean: week 4, 2-4 h postdose; for CSF concentration, Fold increase vs low dose: week 4
Protocol: (§1) Participants were randomised to 3 doses of once-daily orally administered Compound 2 or placebo, in sequential cohort design, and were followed up to 36 weeks (52 weeks for Japanese participants). Participants in the low-dose group received 4 mg of Compound 2 as a once daily oral dose; participants in the mid-dose group received 8 mg of Compound 2 a once daily oral dose; and participants in the high-dose group received 15 mg of Compound 2 a once daily oral dose.
The secondary outcome was to evaluate the pharmacokinetic profile of Compound 2 in plasma and cerebrospinal fluid (CSF) over a 4-week period. Plasma pharmacokinetic parameters included maximum plasma concentration (Cmax), time to Cmax (tmax), and area under the plasma concentration versus time curve from 0 to 24 h (AUC0-24). All parameters were assessed at Week 0 and Week 4 after treatment. In addition, AUC0-48 was assessed at Week 0, trough plasma concentration observed just before treatment administration during repeated dosing (Ctrough) was assessed at Weeks 2, 4, and 8 (FIG. 3), and total systemic clearance from plasma at steady state (CLSS/F) was assessed at Week 4. Plasma samples were collected at 1 hour pre-dose and 1, 2, 4, 8, 24, and 48 hours postdose. Compound 2 concentration in plasma was determined using a liquid chromatography tandem mass spectrometry method with a lower limit of quantification of 0.500 ng/mL. CSF samples were collected by lumbar puncture during the screening period (within 14 days prior to randomisation) or on the day of randomisation, and at Week 4, within 2 to 4 hours postdose. Compound 2 concentration in CSF was determined using a liquid chromatography tandem mass spectrometry method with a lower limit of quantification of 0.100 ng/mL.

[2] = Safety and tolerability: adverse events in the treatment-emergent period, part 1 of phase 2 trial in PD patients carrying a GBA mutation
Excerpt: This clinical trial is a 3-year, phase 2, randomised, double-blinded, placebo-controlled, multicenter study of Compound 2 in participants with early-stage PD carrying a GBA mutation. The trial is divided into 2 consecutive parts: part 1 is a dose escalation study (described below) of safety, pharmacokinetics, and pharmacodynamics of 3 doses using 3 sequential cohorts; part 2 is an ongoing 2-arm study of efficacy and safety of Compound 2.
as §1
The primary outcome in part 1 of trial was an assessment of safety and tolerability of orally administered Compound 2 versus placebo through Week 4 (primary analysis period for each sequential cohort). In addition, safety assessments were recorded for every 4 weeks until completion. Safety was assessed by physical examination; neurological examination; clinical laboratory evaluations conducted at a central laboratory, including haematology, biochemistry, urinalysis, and serology tests; vital signs; assessment of AEs and concomitant medication; ophthalmological examination; and electrocardiogram. AEs, serious Aes, and AEs of special interest (AESI) were recorded throughout the study. Serious AEs were defined as fatal, or life threatening, requiring or prolonging inpatient hospitalisation, or disabling/incapacitating, congenital anomalies, or medically important events (e.g. malignancies or chronic neurodegenerative diseases). AESI included new or worsening lens opacities and cataracts (as assessed by ophthalmology evaluations at screening and at Weeks 4, 12, 28, 36 [Weeks 4, 12, 36, 52 for Japanese participants]), pregnancy events, increase of alanine aminotransferase, or symptomatic overdose with study drug.
During the study, 29 participants were randomised to Compound 2 (Japan, n=9; ROW, n=13) or placebo (n=3; n=4). Eight (89%) Japanese and 12 (92%) ROW Compound 2-treated participants experienced ≥1 adverse event (AE) versus 2 (67%) and 4 (100%) participants from the respective placebo groups. […] Two Compound 2-treated ROW participants discontinued due to AEs (confusional state and panic attack).

glucosylceramide (GL-1) = experiment: CSF glucosylceramide (GL-1) levels, pharmacodynamics
Excerpt: Analyses were based on all available data from participants who enrolled in part 1 of the trial and were randomised to receive either Compound 2 or placebo for up to 52 weeks for Japanese participants and 36 weeks for the ROW population. As part 1 was an exploratory, dose-escalation study, the sample size was not based on a statistical power calculation. Participants included in the primary safety analyses were those who were randomized and received at least one dose of Compound 2 or placebo. A data monitoring committee was responsible for overseeing the safety of patients and the risk/benefit ratio throughout the study. Duration of exposure to Compound 2 was different among the doses, as per the sequential cohort design, with the low- and high-dose cohorts commencing the study first and last, respectively. For pharmacokinetics, plasma parameters were calculated using noncompartmental methods, from plasma Compound 2 concentrations obtained after single dose administration. AUC0-24 and AUC0-48 were calculated using the trapezoidal method over a predefined time period of 24 hours or 48 hours, respectively. CLss/F was calculated using the following equation: CLss/F=Dose/AUCτ, where τ is the dosing interval. For pharmacodynamics, percent reduction of plasma or CSF GL-1 from baseline was calculated as (value−baseline)/baseline×100. Formal statistical testing was not conducted on MDS-UPDRS scale assessments.
In exploratory analyses, Compound 2 pharmacodynamics in plasma and CSF were assessed by mean percent change in GL-1 levels from baseline through Week 4. GL-1 levels were assessed in plasma and CSF samples collected at the day of randomisation and Week 4, with plasma GL-1 levels also assessed at Week 2.
Concentrations of GL-1 in plasma and CSF were determined using a liquid chromatography tandem mass spectrometry method. Secondary pharmacokinetic outcomes were evaluated over a 4-week period of once-daily Compound 2 dosing (Table 7).

[3] = Japan, High 15 mg once daily oral, n = 3
[4] = Japan, Low 4 mg once daily oral, n = 3
[5] = Japan, Mid 8 mg once daily oral, n = 3
[6] = ROW, Low 4 mg once daily oral, n = 4
[7] = ROW, Mid 8 mg once daily oral, n = 5
[8] = ROW, High 15 mg once daily oral, n = 4, CSF sample not collected for 1 participant

CC(C)(NC(=O)O[C@@H]1CN2CCC1CC2)c1csc(-c2ccc(F)cc2)n1 [Compound 2, (S)-quinuclidin-3-yl (2-(2-(4-fluorophenyl)thiazol-4-yl)propan-2-yl)carbamate]
CSF concentration, mean [1, 3]: 10.1 ng/mL | CSF concentration, mean [1, 4]: 2.11 ng/mL | CSF concentration, mean [1, 5]: 4.33 ng/mL | CSF concentration, mean ([1]; ROW, High 15 mg once daily oral, sample not collected for 1 of n = 4): 5.96 ng/mL | CSF concentration, mean ([1]; ROW, Low 4 mg once daily oral, 1 of n = 4 not included): 1.85 ng/mL | CSF concentration, mean ([1]; ROW, Mid 8 mg once daily oral, 2 of n = 5 not included): 3.15 ng/mL | CSF concentration, Fold increase vs low dose ([1]; Japan, High 15 mg vs Low 4 mg): 4.79 fold | CSF concentration, Fold increase vs low dose ([1]; Japan, Mid 8 mg vs Low 4 mg): 2.05 fold | CSF concentration, Fold increase vs low dose ([1]; ROW, High 15 mg vs Low 4 mg): 3.22 fold | CSF concentration, Fold increase vs low dose ([1]; ROW, Mid 8 mg vs Low 4 mg): 1.70 fold | increase of Compound 2 concentration in CSF with dose ([1]; Japanese and ROW cohorts, 4, 8, 15 mg): close to dose-proportional manner | Number of participants with AEs: Infections and infestations [2, 3]: 1 | Number of participants with AEs: Infections and infestations [2, 4]: 2 | Number of participants with AEs: Infections and infestations [2, 5]: 0 | Number of participants with AEs: Infections and infestations ([2]; ROW, High 15 mg once daily oral, n = 4): 1 | Number of participants with AEs: Infections and infestations [2, 6]: 0 | Number of participants with AEs: Infections and infestations [2, 7]: 0 | serious AEs or deaths ([2]; all participants, part 1): no serious AEs or deaths occurred | participants who discontinued due to AEs (confusional state and panic attack) ([2]; human, in vivo): Two | CSF GL-1, Week 4 (mean) (glucosylceramide (GL-1); [3]): 2.770 ng/mL | CSF GL-1, Week 4, Change from baseline (%) (mean) (glucosylceramide (GL-1); [3]): −72.0% | CSF GL-1, Week 4, Change from baseline (mean) (glucosylceramide (GL-1); [3]): -6.663 ng/mL | CSF GL-1, Week 4 (mean) (glucosylceramide (GL-1); [4]): 3.843 ng/mL | CSF GL-1, Week 4, Change from baseline (%) (mean) (glucosylceramide (GL-1); [4]): −21.7% | CSF GL-1, Week 4, Change from baseline (mean) (glucosylceramide (GL-1); [4]): -1.733 ng/mL | CSF GL-1, Week 4 (mean) (glucosylceramide (GL-1); [5]): 3.027 ng/mL | CSF GL-1, Week 4, Change from baseline (%) (mean) (glucosylceramide (GL-1); [5]): −67.0% | CSF GL-1, Week 4, Change from baseline (mean) (glucosylceramide (GL-1); [5]): -5.023 ng/mL | mean reduction in CSF GL-1 at Week 4 (glucosylceramide (GL-1); Japanese cohort, high-dose 15 mg): 72.0% | mean reduction in CSF GL-1 at Week 4 (glucosylceramide (GL-1); Japanese cohort, low-dose 4 mg): 21.7% | mean reduction in CSF GL-1 at Week 4 (glucosylceramide (GL-1); Japanese cohort, medium-dose 8 mg): 67.0% | mean reduction in CSF GL-1 at Week 4 (glucosylceramide (GL-1); ROW participants, high-dose 15 mg): 74.3% | mean reduction in CSF GL-1 at Week 4 (glucosylceramide (GL-1); ROW participants, low-dose 4 mg): 41.0% | mean reduction in CSF GL-1 at Week 4 (glucosylceramide (GL-1); ROW participants, medium-dose 8 mg): 58.0% | CSF GL-1, Week 4 (mean) (glucosylceramide (GL-1); [8]): 1.623 ng/mL | CSF GL-1, Week 4, Change from baseline (%) (mean) (glucosylceramide (GL-1); [8]): −74.3% | CSF GL-1, Week 4, Change from baseline (mean) (glucosylceramide (GL-1); [8]): -5.250 ng/mL | CSF GL-1, Week 4 (mean) (glucosylceramide (GL-1); [6]): 4.315 ng/mL | CSF GL-1, Week 4, Change from baseline (%) (mean) (glucosylceramide (GL-1); [6]): −41.0% | CSF GL-1, Week 4, Change from baseline (mean) (glucosylceramide (GL-1); [6]): -2.433 ng/mL | CSF GL-1, Week 4 (mean) (glucosylceramide (GL-1); [7]): 4.406 ng/mL | CSF GL-1, Week 4, Change from baseline (%) (mean) (glucosylceramide (GL-1); [7]): −58.0% | CSF GL-1, Week 4, Change from baseline (mean) (glucosylceramide (GL-1); [7]): -6.376 ng/mL | decrease in CSF GL-1 levels from baseline (glucosylceramide (GL-1); highest dose (15 mg), Japanese and ROW cohorts): 72.0%-74.3% | brain penetration (glucosylceramide (GL-1); oral administration, indicated by CSF GL-1 decrease): brain-penetrant on oral administration | decrease of CSF GL-1 levels from baseline versus dose (glucosylceramide (GL-1); over 4 weeks): dose-dependent manner
